Key:
MCF7 = assay: Antiproliferative activity against human MCF7 cells assessed as reduction in cell viability after 72 hrs by cell counter method; assay type: functional, cell-based; details: MCF7, 72 h
Aromatase = biological target: T1, Aromatase (Homo sapiens, UniProt P11511); assay: Inhibition of human aromatase assessed as reduction in fluorescence intensity preincubated with NADPH regenerating system for 10 mins followed by substrate addition incubated for 60 mins by fluorescence based microplate reader analysis
T1 sequence (P11511 whole entry): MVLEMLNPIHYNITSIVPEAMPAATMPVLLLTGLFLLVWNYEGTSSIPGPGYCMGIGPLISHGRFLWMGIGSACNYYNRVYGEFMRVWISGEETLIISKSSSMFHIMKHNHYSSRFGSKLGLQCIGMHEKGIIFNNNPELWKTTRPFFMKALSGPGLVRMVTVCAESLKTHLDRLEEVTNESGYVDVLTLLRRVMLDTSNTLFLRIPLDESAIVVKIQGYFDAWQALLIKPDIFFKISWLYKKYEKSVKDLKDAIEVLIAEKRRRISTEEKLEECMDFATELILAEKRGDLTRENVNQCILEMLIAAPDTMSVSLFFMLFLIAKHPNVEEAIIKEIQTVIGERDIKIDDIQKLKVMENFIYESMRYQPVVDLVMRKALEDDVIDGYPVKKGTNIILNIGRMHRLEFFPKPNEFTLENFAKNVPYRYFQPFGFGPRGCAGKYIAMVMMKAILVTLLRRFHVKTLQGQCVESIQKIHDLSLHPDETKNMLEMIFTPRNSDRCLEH

MCF-10A = assay: Antiproliferative activity against human MCF-10A cells assessed as reduction in cell viability after 72 hrs by cell counter method; assay type: functional, cell-based
Estrogen receptor = biological target: T2, Estrogen receptor (Homo sapiens, UniProt P03372); assay: Binding affinity to human ERalpha measured after 2 hrs by fluorescence polarization plate reader
T2 sequence (P03372 whole entry): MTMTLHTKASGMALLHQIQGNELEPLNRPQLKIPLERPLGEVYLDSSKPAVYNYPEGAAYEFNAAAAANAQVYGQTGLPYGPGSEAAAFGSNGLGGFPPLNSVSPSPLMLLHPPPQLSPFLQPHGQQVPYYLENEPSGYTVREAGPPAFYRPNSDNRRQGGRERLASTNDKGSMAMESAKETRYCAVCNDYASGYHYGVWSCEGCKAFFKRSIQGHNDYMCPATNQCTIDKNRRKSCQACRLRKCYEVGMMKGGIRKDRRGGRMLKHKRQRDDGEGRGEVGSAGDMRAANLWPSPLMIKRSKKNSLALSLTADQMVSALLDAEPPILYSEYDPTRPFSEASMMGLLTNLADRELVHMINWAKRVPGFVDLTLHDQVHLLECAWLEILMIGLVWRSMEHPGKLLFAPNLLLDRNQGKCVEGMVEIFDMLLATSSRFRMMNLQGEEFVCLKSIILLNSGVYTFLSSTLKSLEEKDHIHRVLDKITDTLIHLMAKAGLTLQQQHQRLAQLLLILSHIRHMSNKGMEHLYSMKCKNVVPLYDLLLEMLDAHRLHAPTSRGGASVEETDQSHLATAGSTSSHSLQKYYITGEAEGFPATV

Structure (SMILES) | IC50 (MCF7) | IC50 (Aromatase) | IC50 (MCF-10A) | IC50 (Estrogen receptor)
CCC(Cc1cccnc1)=C(c1ccc(O)cc1)c1ccc(O)cc1 | 27.6 µM | 23 nM | > 100 µM | 19 nM
CC(CCc1c[nH]cn1)=C(c1ccc(O)cc1)c1ccc(O)cc1 | 39.8 µM | 63 nM | 50.4 µM | 1740 nM
CC(Cn1ccnc1)=C(c1ccc(O)cc1)c1ccc(O)cc1 | 37 µM | 1000 nM | 52.5 µM | 4950 nM
CC/C(=C(\c1ccc(O)cc1)c1ccc(OCCNC)cc1)c1ccccc1 [ENDOXIFEN] | 0.1 µM | > 10000 nM | > 10 µM | 30 nM
CC(=C(c1ccc(O)cc1)c1ccc(O)cc1)c1cccnc1 | 5.3 µM | > 10000 nM | 41.7 µM | 76 nM
CCC(=C(c1ccc(O)cc1)c1ccc(O)cc1)c1cccnc1 | 10 µM | 1250 nM | 17 µM | > 10000 nM
CCC(CCc1cccnc1)=C(c1ccc(O)cc1)c1ccc(O)cc1 | 42.1 µM | 900 nM | 20 µM | 33 nM
CCC(Cn1ccnc1)=C(c1ccc(O)cc1)c1ccc(O)cc1 | 24.3 µM | 35 nM | 34.7 µM | 1800 nM
CC(=C(c1ccc(O)cc1)c1ccc(O)cc1)c1c[nH]cn1 | 58 µM | 596 nM | > 100 µM | 223 nM
CC(CCc1cccnc1)=C(c1ccc(O)cc1)c1ccc(O)cc1 | > 100 µM | 3240 nM | > 100 µM | 313 nM
CCC(CCc1c[nH]cn1)=C(c1ccc(O)cc1)c1ccc(O)cc1 | 37.1 µM | 52 nM | > 100 µM | 197 nM
N#Cc1ccc(C(c2ccc(C#N)cc2)n2cncn2)cc1 [LETROZOLE] | 4.1 µM |  | > 10 µM | > 10000 nM
CCC(=C(c1ccc(O)cc1)c1ccc(O)cc1)c1c[nH]cn1 | 60 µM | 952 nM | > 100 µM | 1070 nM
CC(Cc1cccnc1)=C(c1ccc(O)cc1)c1ccc(O)cc1 | 41.2 µM | 861 nM | 58.7 µM | 1770 nM

— ChEMBL document CHEMBL5036334, “Balanced dual acting compounds targeting aromatase and estrogen receptor α as an emerging therapeutic opportunity to counteract estrogen responsive breast cancer” (Eur J Med Chem, 2021)
